Data on 4 compounds can be found in paper PMC9452538, “The antimicrobial peptide LI14 combats multidrug-resistant bacterial infections” (Communications Biology, 2022).

The test system of one assay is MDR E. coli B2. The assay can be described thus: Checkerboard assay with LI14. The note with it: for FIC index: antibiotic in combination with LI14, checkerboard 8 × 8, 18 h, ≤0.5 = synergy; for Potentiation: antibiotic potentiation in the presence of ¼ MIC of LI14; for MICa of antibiotic: in the absence of LI14; for MICb of antibiotic: in the presence of ¼ MIC of LI14. In kind it is cell-based, Escherichia coli. On the procedure:
(§1) Through checkerboard assay using two-fold serially diluted drugs (8 × 8 matrix), we evaluated the synergistic effects of LI14 with different mechanisms of antibiotics. The absorbance of cultures at 600 nm was determined by a Microplate reader after 18 h of incubation with (1.5 × 10^6 CFUs/mL) bacterial suspension. The FIC index (FICI) was calculated by performing two biological replicates for each combination. The formula is as follows: FIC index = FICIa + FICIb = MICab/MICa + MICba/Mb. An FIC index of ≤0.5 indicates synergy.
(§2) a/bMICs of antibiotics in the absence or presence of ¼ MIC of LI14.
(§3) cDegree of antibiotics potentiation in the presence of ¼ MIC of LI14.
(§4) –, none of potentiation activity.

For assay [1], the system named is sensitive E. coli ATCC 25922. The assay can be described thus: Checkerboard assay with LI14. In kind it is cell-based, Escherichia coli. The note with it: for FIC index: antibiotic in combination with LI14, checkerboard; for MICa of antibiotic: in the absence of LI14; for MICb of antibiotic / Potentiation: in the presence of ¼ MIC of LI14. On the procedure: as §1, §2, §3, §4

Assay [2] concerns MRSA T144. Nature of the assay: Checkerboard assay with LI14. Format: cell-based, Staphylococcus aureus. To be noted: for FIC index: antibiotic in combination with LI14, checkerboard; for MICa of antibiotic: in the absence of LI14; for MICb of antibiotic / Potentiation: in the presence of ¼ MIC of LI14. The procedure: as §1, §2, §3, §4
For assay [3], the system named is MRSA T144. The assay can be described thus: Neutropenic mouse thigh infection model. Format: in vivo, CD-1 mice. The note with it: AMP 20 mg/kg i.p., 48 h. On the procedure: Female CD-1 mice (n = 6 biologically independent animals per group) were first given cyclophosphamide (two consecutive injections of 150 and 100 mg kg^−1 at 4 and 1 day before infection) to construct neutropenia models. The mice’s right thighs were then injected with 100 μL MRSA T144 or E. coli B2 suspensions (10^5 CFUs per mouse). Post-infection of 1 h, 100 μL LI14 peptide (10 or 20 mg/kg), ampicillin/rifampicin (20 mg/kg) or a combination of LI14 with ampicillin/ rifampicin (10 + 20 mg/kg) were given by intraperitoneal injection. All mice were euthanized 48 h after drug administration, and right thigh muscle tissue was removed aseptically, homogenized, serially diluted, and plated on MHA to qualify bacterial loads after overnight incubation at 37 °C.

For assay [4], the system named is MRSA T144. Nature of the assay: microbe, parasite or virus in culture. Further details: Antibacterial activity of LI14 derivates: unit not given here. To be noted: MRSA T144; unit not given. Format: cell-based, Staphylococcus aureus. The procedure:
(§5) An antimicrobial activity study was conducted on all peptides against a panel of laboratory bacteria, including ATCC source and clinical isolates with resistance determinants. According to CLSI2021 guidelines, we tested the minimum inhibitory concentrations (MICs) of peptides using standard broth micro-dilutions. Briefly, bacteria grown to exponential phase were diluted in 1:1000 to MHB, subsequently, equivalent amounts of bacterial suspension (1.5 × 10^6 CFUs/mL) were mixed with different concentrations of peptides in a sterilized 96-well microtiter plate (Corning).

Another assay has as its system S. aureus ATCC 29213. Nature of the assay: microbe, parasite or virus in culture. In kind it is cell-based, Staphylococcus aureus. Details: Antibacterial activity of LI14 derivates: unit not given here. To be noted: S. aureus 29213; unit not given. The procedure: as §5
In a further assay the test system is E. coli ATCC 25922. The assay can be described thus: microbe, parasite or virus in culture. Details: Antibacterial activity of LI14 derivates: unit not given here. The note with it: E. coli 25922; unit not given. Format: cell-based, Escherichia coli. On the procedure: as §5
For assay [5], the system named is E. coli B2 (blaNDM-5 + mcr-1). Nature of the assay: microbe, parasite or virus in culture. Format: cell-based, Escherichia coli. Details: Antibacterial activity of LI14 derivates: unit not given here. The note with it: E. coli B2; unit not given. The procedure: as §5

`C[C@H]1c2cccc(O)c2C(=O)C2=C(O)[C@]3(O)C(=O)C(C(N)=O)=C(O)[C@@H](N(C)C)[C@@H]3[C@@H](O)[C@@H]21` [Doxycycline]: in the assay with MDR E. coli B2, the FIC index came to 0.25, the Potentiation was determined as 8 fold, the MICa of antibiotic worked out at 32 µg/mL and the MICb of antibiotic was determined as 4 µg/mL. Besides, in assay [1], the FIC index turned out to be 0.25, the MICa of antibiotic stood at 0.5 µg/mL, the MICb of antibiotic stood at 0.063 µg/mL and the Potentiation stood at 8 fold. Further, in the assay with MRSA T144 [2], the FIC index stood at 0.188, the MICa of antibiotic was 16 µg/mL, the MICb of antibiotic amounted to 1 µg/mL and the Potentiation is 16 fold.

As for `CN[C@H](CC(C)C)C(=O)N[C@H]1C(=O)N[C@@H](CC(N)=O)C(=O)N[C@H]2C(=O)N[C@H]3C(=O)N[C@H](C(=O)N[C@H](C(=O)O)c4cc(O)cc(O)c4-c4cc3ccc4O)[C@H](O)c3ccc(c(Cl)c3)Oc3cc2cc(c3O[C@@H]2O[C@H](CO)[C@@H](O)[C@H](O)[C@H]2O[C@H]2C[C@](C)(N)[C@H](O)[C@H](C)O2)Oc2ccc(cc2Cl)[C@H]1O` [Vancomycin], in the assay with MDR E. coli B2, the FIC index came to 0.078, the Potentiation was 64 fold, the MICa of antibiotic is 128 µg/mL and the MICb of antibiotic was 2 µg/mL. In addition, in assay [1], the FIC index was determined as 0.375, the MICa of antibiotic stood at 64 µg/mL, the MICb of antibiotic was determined as 8 µg/mL and the Potentiation was determined as 8 fold. For the same compound, in the assay on MRSA T144 [2], the FIC index was determined as 2.0, the MICa of antibiotic amounted to 0.5 µg/mL and the MICb of antibiotic is 0.5 µg/mL.

For `CC1(C)S[C@@H]2[C@H](NC(=O)[C@H](N)c3ccccc3)C(=O)N2[C@H]1C(=O)O` [Ampicillin], the figures for the FIC index in the assay on MDR E. coli B2 and in the assay with MRSA T144 [2] were 2 and 0.078, respectively. For the same compound, the MICa of antibiotic with MDR E. coli B2 was over 128 µg/mL; in the assay with MRSA T144 [2], 64 µg/mL. Further, the results for the MICb of antibiotic in the assay with MDR E. coli B2 and in the assay with MRSA T144 [2] were over 128 µg/mL and 1 µg/mL, respectively. Also, the Potentiation in the assay on MRSA T144 [2] is given as 64 fold. Besides, the “Bacterial load in thigh” value was determined as 7.62 Log10CFUs/thigh in the assay on MRSA T144 [3] (animal 1); 7.65 Log10CFUs/thigh in the assay on MRSA T144 [3] (animal 2); 8.00 Log10CFUs/thigh with MRSA T144 [3] (animal 3); 8.03 Log10CFUs/thigh with MRSA T144 [3] (animal 4); 7.34 Log10CFUs/thigh in the assay with MRSA T144 [3] (animal 5); 7.15 Log10CFUs/thigh with MRSA T144 [3] (animal 6).

As to “LKKLCAILKKLCRI-NH2 [LI14-A6, Ala substitute of LI14, Arg at position 6]”, the “Antibacterial activity of LI14 derivates” value was over 128 in the assay on MRSA T144 [4], over 128 in the assay on S. aureus ATCC 29213, 128 with E. coli ATCC 25922 and 32 in assay [5].
